Literature values as cited in patent US20170326105A1, “MELATONIN-BASED NASAL COMPOSITIONS AND USES THEREOF” (The Lester Smith Medical Research Institute, LLC, priority 2016, published 2017).

For COc1ccc2[nH]cc(CCNC(C)=O)c2c1 [melatonin, N-acetyl-5-methoxy tryptamine], the “time for plasma levels to return to baseline” value (after discontinuation of chronic dosing of less than 10 mg/day) is given as no more than 24 h, the “estimated peak blood levels above physiological levels” value (doses of melatonin 5 mg) is given as 25 times and the “time after administration for blood plasma concentration to reach its peak” value (oral administration) is given as “over an hour”.
